Reference: article PMC6596218, “Anthranilic amide and imidazobenzothiadiazole compounds disrupt Mycobacterium tuberculosis membrane potential” (MedChemComm, 2019)
In brackets after ≈: the same amount, converted by molar mass.

Tests used:
HepG2 cells = assay: HepG2 cytotoxicity (CellTiter-Glo, 72 h); type: cell-based; conditions: Homo sapiens, mean ± standard deviation, replicates in parentheses
M. tuberculosis H37Rv = assay: Minimum bactericidal concentration at pH 4.5 (MBC4.5), luminescence readout; type: cell-based, Mycobacterium tuberculosis; conditions: median, pH 4.5 phosphate citrate buffer, 7 days, 2-log reduction threshold, replicates in parentheses; for MBC: Mycobacterium tuberculosis, H37RV, 168 h
[1] = tested on: intracellular M. tuberculosis in RAW 264.7 cells; assay: Activity against intracellular M. tuberculosis in RAW 264.7 cells; type: cell-based, Mycobacterium tuberculosis; conditions: RAW 264.7 cells (ATCC TIB-71)
Description: In addition to determination of the MBC4.5 for each compound, we evaluated antitubercular activity of the compounds as measured by MIC at pH 5.6 (Table S1 ^†) and IC50 against intracellular M. tuberculosis in RAW 264.7 cells (ATCC TIB-71) (Table S2 ^†). […] General cytotoxicity against the infected RAW 264.7 cells was observed and was correlated with cytotoxicity against HepG2 cells (Table S2 ^†).

[2] = tested on: non-replicating M. tuberculosis; assay: Non-replicating kill kinetics at pH 5.5 (CFU over 21 days); type: cell-based, Mycobacterium tuberculosis; conditions: single replicate; for log kill at 14 days: pH 5.5, 14 days
M. tuberculosis = tested on: M. tuberculosis; set-up: method as in PMID 30501173; conditions: non-replicating, cited from earlier work

Structure (SMILES)	IC50 (HepG2 cells) [µM]	MBC (M. tuberculosis H37Rv) [µM]	antitubercular activity against intracellular M. tuberculosis [1]	log kill at 14 days [2] [log]	log kill within 21 days ([2]; pH 5.5, 21 days) [logs]	log kill within 7 days ([2]; pH 5.5, 7 days) [log]	MBC4.5 (M. tuberculosis H37Rv)	decrease of CFU in the culture within 7 days (M. tuberculosis; pH 4.5 and pH 6.8, 10–100 μM, 7 days) [logs]	time to sterilizing the culture (M. tuberculosis; pH 4.5 and pH 6.8, all concentrations 10–100 μM) [days]
CCN(C)c1ccccc1C(=O)Nc1ccc(Cl)cc1Cl [Compound 11, N-(2,4-dichlorophenyl)-2-(ethyl(methyl)amino)benzamide]	69 ± 44	> 200	showed antitubercular activity						
CS(=O)(=O)Nc1ccccc1C(=O)Nc1ccc(Cl)cc1Cl [Compound 8, N-(2,4-dichlorophenyl)-2-(methylsulfonamido)benzamide]	78 ± 29	75 (≈ 26.9 µg/mL)		> 4					
O=C(Nc1ccccn1)c1ccccc1NS(=O)(=O)c1ccc(Br)cc1 [Compound 24, 2-(4-bromophenylsulfonamido)-N-(pyridin-2-yl)benzamide]	52 ± 13	113 (≈ 48.8 µg/mL)			> 3				
O=C(Nc1ccc(Cl)cc1)c1ccccc1NS(=O)(=O)c1ccc(Br)cc1 [Compound 3, 2-(4-bromophenylsulfonamido)-N-(4-chlorophenyl)benzamide]	11 ± 4.7	50 (≈ 23.3 µg/mL)		> 4		> 3			
O=[N+]([O-])c1cc2nc(C(F)(F)F)[nH]c2c2nsnc12 [Compound 2]	83 ± 24	25 (≈ 7.23 µg/mL)					25 (2) μM	> 4	≤ 14
